What was measured:
[1] = system: LNCaP cells; assay: LNCaP cell proliferation, ASO in combination with MDV3100 (Example 20); assay type: cell-based, human; settings: for Proliferation (% untreated control) in LNCaP without MDV-3100: 5 days
Protocol: LNCaP cells were plated at 1,000 cells per well. […] ISIS 549148 was included as a negative control. […] After a treatment period of 5 days, the proliferative capacity of the cancer cells was measured with CellTiter 96® AQueous One or CellTiter-Glo® Solution Cell Proliferation kit (Promega), following the manufacturer's instructions. […]

[2] = system: full length AR mRNA; assay: Full-length AR RNA in VCaP cells (complete, CSS+DHT medium); assay type: cell-based, human; settings: RNAiMax, 48 hrs
Protocol: Cells were plated at 10,000 cells per well. […] After an incubation period of 48 hrs, RNA levels of full length AR, the V7 variant, PSA and TMPRSS2 were measured.
After an incubation period of 48 hrs, RNA levels of full length AR, the V7 variant, PSA and TMPRSS2 were measured. The data is presented in Tables 108 expressed as percent expression of gene levels compared to the untreated control.
Cells were plated at 15,000 cells per well and cultured in CSS media for 16 hours. […] After 4 hrs, 1 nM DHT was added. […] After an incubation period of 48 hrs, RNA levels of AR, PSA and TMPRSS2 were measured.

[3] = system: MDA-MB-453 tumor; assay: Tumor volume in MDA-MB-453 breast cancer orthotopic model; assay type: in vivo, NSG mice; settings: Study 2, MDA-MB-453 model, NSG mice, 50 mg/kg s.c. 5 days per week for 2 weeks
[4] = system: AR mRNA; assay: AR RNA expression in LNCaP cells (complete, CSS, CSS+DHT medium); assay type: cell-based, human; settings: for Percent expression of AR in LNCaP cells cultured in CSS + DHT medium: CSS + DHT (1 nM) medium; for Percent expression of AR in LNCaP cells cultured in CSS + DHT medium / Percent expression of AR in LNCaP cells cultured in CSS medium: 48 hrs; for Percent expression of AR in LNCaP cells cultured in complete medium: 48 hours
Protocol: Cells were plated at 1,000 cells per well. […] After an incubation period of 48 hours, RNA levels of AR, PSA and TMPRSS2 were measured.
Cells were plated at 2,000 cells per well and cultured in phenol red-free RPMI supplemented with 5% charcoal stripped serum (Gibco) media for 16 hours. […] After an incubation period of 4 hrs, DHT was added to the medium to a final concentration of 1 nM as indicated. RNAs were collected 48 hrs later and levels of AR, PSA and TMPRSS2 were measured.

## TGATTTAATGGTTGCA [ISIS 569236] (cEt/MOE gapmer chemistry, further chemistry not given here) [targets intron 1]
[1]; ASO dose 0.04 μM + 2.0 μM MDV-3100
  Proliferation (% untreated control) in LNCaP with 2.0 μM MDV-3100: 41 % untreated control
[1]; ASO dose 0.04 μM + […] MDV-3100
  Proliferation (% untreated control) in LNCaP with […] MDV-3100: 92 % untreated control
[1]; ASO dose 0.04 μM
  Proliferation (% untreated control) in LNCaP without MDV-3100: 91 % untreated control
[1]; ASO dose 0.08 μM + 0.08 μM MDV-3100
  Proliferation (% untreated control) in LNCaP with 0.08 μM MDV-3100: 98 % untreated control
[1]; ASO dose 0.08 μM + 0.4 μM MDV-3100
  Proliferation (% untreated control) in LNCaP with 0.4 μM MDV-3100: 61 % untreated control
[1]; ASO dose 0.08 μM + 2.0 μM MDV-3100
  Proliferation (% untreated control) in LNCaP with 2.0 μM MDV-3100: 44 % untreated control
[1]; ASO dose 0.08 μM + […] MDV-3100
  Proliferation (% untreated control) in LNCaP with […] MDV-3100: 104 % untreated control
[1]; ASO dose 0.08 μM
  Proliferation (% untreated control) in LNCaP without MDV-3100: 106 % untreated control
[1]; ASO dose 0.2 μM + 0.08 μM MDV-3100
  Proliferation (% untreated control) in LNCaP with 0.08 μM MDV-3100: 51 % untreated control
[1]; ASO dose 0.2 μM + 0.4 μM MDV-3100
  Proliferation (% untreated control) in LNCaP with 0.4 μM MDV-3100: 41 % untreated control
[1]; ASO dose 0.2 μM + 2.0 μM MDV-3100
  Proliferation (% untreated control) in LNCaP with 2.0 μM MDV-3100: 35 % untreated control
[1]; ASO dose 0.2 μM + […] MDV-3100
  Proliferation (% untreated control) in LNCaP with […] MDV-3100: 58 % untreated control
[1]; ASO dose 0.2 μM
  Proliferation (% untreated control) in LNCaP without MDV-3100: 60 % untreated control
[1]; ASO dose 1.0 μM + 0.08 μM MDV-3100
  Proliferation (% untreated control) in LNCaP with 0.08 μM MDV-3100: 31 % untreated control
[1]; ASO dose 1.0 μM + 0.4 μM MDV-3100
  Proliferation (% untreated control) in LNCaP with 0.4 μM MDV-3100: 27 % untreated control
[1]; ASO dose 1.0 μM + 2.0 μM MDV-3100
  Proliferation (% untreated control) in LNCaP with 2.0 μM MDV-3100: 23 % untreated control
[1]; ASO dose 1.0 μM + […] MDV-3100
  Proliferation (% untreated control) in LNCaP with […] MDV-3100: 29 % untreated control
[1]; ASO dose 1.0 μM
  Proliferation (% untreated control) in LNCaP without MDV-3100: 35 % untreated control
[1]; LNCaP cells
  synergy with MDV3100: synergistic with MDV3100
[1]; LNCaP cells, 0.04 μM ASO in combination with 0.08 μM MDV3100
  cell proliferation inhibited, combination: 26%
[1]; LNCaP cells, ASO alone at 0.04 μM
  inhibited cell proliferation, ASO alone: 9%
[2]; CSS medium, 1.34 nM
  Percent inhibition of full-length AR: 23%
[2]; CSS medium, 4.0 nM
  Percent inhibition of full-length AR: 21%
[2]; CSS medium, 13.4 nM
  Percent inhibition of full-length AR: 38%
[2]; CSS medium, 40 nM
  Percent inhibition of full-length AR: 35%
[2]; complete medium, 1.34 nM
  Percent inhibition of full-length AR: 0%
[2]; complete medium, 4.0 nM
  Percent inhibition of full-length AR: 41%
[2]; complete medium, 13.4 nM
  Percent inhibition of full-length AR: 49%
[2]; complete medium, 40 nM
  Percent inhibition of full-length AR: 74%
[3]; Day 0
  Tumor volumes: 134
[3]; Day 8
  Tumor volumes: 283
[3]; Day 13
  Tumor volumes: 260
[3]; Day 20
  Tumor volumes: 230
[3]; Day 23
  Tumor volumes: 264
[3]; Day 27
  Tumor volumes: 329
[3]; Day 29
  Tumor volumes: 323
[4]; 0.04 μM
  Percent expression of AR in LNCaP cells cultured in CSS + DHT medium: 104%
  Percent expression of AR in LNCaP cells cultured in CSS medium: 94%
  Percent expression of AR in LNCaP cells cultured in complete medium: 98%
[4]; 0.2 μM
  Percent expression of AR in LNCaP cells cultured in CSS + DHT medium: 86%
  Percent expression of AR in LNCaP cells cultured in CSS medium: 66%
  Percent expression of AR in LNCaP cells cultured in complete medium: 90%
[4]; 1 μM
  Percent expression of AR in LNCaP cells cultured in CSS + DHT medium: 55%
  Percent expression of AR in LNCaP cells cultured in CSS medium: 35%
  Percent expression of AR in LNCaP cells cultured in complete medium: 47%
[4]; 5.0 μM
  Percent expression of AR in LNCaP cells cultured in CSS + DHT medium: 21%
  Percent expression of AR in LNCaP cells cultured in CSS medium: 13%
  Percent expression of AR in LNCaP cells cultured in complete medium: 20%

Source: patent publication USRE48461E1, “Modulation of androgen receptor expression” (Ionis Pharmaceuticals, Inc., priority 2012, dated 2021)
